The record followed here is the NIST ThermoML archive (doi:10.1016/j.fluid.2014.11.020).

± gives the expanded uncertainty stated by the source.

The nature of the series: activity coefficient (dimensionless); of the first substance listed, at infinite dilution; xn = mol fraction of the nth substance listed. Particulars: Liquid, Chromatography, x1 = 0.

With `C=CCCCC` [hex-1-ene] + CN(C)c1cc[n+](COCCCOC[n+]2ccc(N(C)C)cc2)cc1.O=S(=O)([N-]S(=O)(=O)C(F)(F)F)C(F)(F)F.O=S(=O)([N-]S(=O)(=O)C(F)(F)F)C(F)(F)F, the activity coefficient came out at 9.4 ± 0.64 (323.15 K), 8.7 ± 0.59 (333.15 K) and 7.95 ± 0.54 (343.15 K).

Regarding `CCCCCCCCCCCCC` [tridecane] + CCCOC[n+]1ccn(C)c1.O=S(=O)([N-]S(=O)(=O)C(F)(F)F)C(F)(F)F, the activity coefficient (323.15 K) stood at 201 ± 14, the activity coefficient (333.15 K) worked out at 165 ± 11 and the activity coefficient (343.15 K) amounted to 147 ± 10.

As to `C=CCCCC` [hex-1-ene] + Cn1cc[n+](COCCCOC[n+]2ccn(C)c2)c1.O=S(=O)([N-]S(=O)(=O)C(F)(F)F)C(F)(F)F.O=S(=O)([N-]S(=O)(=O)C(F)(F)F)C(F)(F)F, the activity coefficient by setting is: (323.15 K) 15.1 ± 1; (333.15 K) 10.1 ± 0.69.

Take `C[N+](=O)[O-]` [nitromethane] + CCCOC[n+]1ccn(C)c1.N#C[N-]C#N: the activity coefficient is, setting by setting: (323.15 K) 0.69 ± 0.05; (333.15 K) 0.7 ± 0.05; (343.15 K) 0.73 ± 0.05.

As to `CC(C)CO` [2-methyl-1-propanol] + CCCCCCCCn1cc[n+](COCCC)c1C.O=S(=O)([N-]S(=O)(=O)C(F)(F)F)C(F)(F)F, the activity coefficient (323.15 K) was 1.21 ± 0.08, the activity coefficient (333.15 K) stood at 1.09 ± 0.07 and the activity coefficient (343.15 K) is 1.03 ± 0.06.

As for `c1ccncc1` [pyridine] + CCCCCCCCn1cc[n+](COCCCOC[n+]2ccn(CCCCCCCC)c2C)c1C.N#C[N-]C#N.N#C[N-]C#N, the activity coefficient stood at 0.4 ± 0.03 (323.15 K), 0.38 ± 0.03 (333.15 K) and 0.38 ± 0.03 (343.15 K).

`CCCCCCCCCC` [decane] + CCCOC[n+]1ccn(Cc2ccccc2)c1.O=S(=O)([N-]S(=O)(=O)C(F)(F)F)C(F)(F)F: the activity coefficient is, setting by setting: (323.15 K) 28.8 ± 2; (333.15 K) 23.2 ± 1.6; (343.15 K) 21.1 ± 1.4.

`CCCCCCCC` [octane] + CCCCCCCCn1cc[n+](COCCCOC[n+]2ccn(CCCCCCCC)c2C)c1C.N#C[N-]C#N.N#C[N-]C#N: the activity coefficient (323.15 K) was determined as 12.1 ± 0.82, the activity coefficient (333.15 K) worked out at 11.4 ± 0.78 and the activity coefficient (343.15 K) was 11.3 ± 0.77.

Consider `ClC(Cl)Cl` [trichloromethane] + CCCOC[n+]1ccn(Cc2ccccc2)c1.N#C[N-]C#N, for which the activity coefficient came to 0.62 ± 0.04 (323.15 K), 0.65 ± 0.04 (333.15 K) and 0.69 ± 0.05 (343.15 K).

`C#CCCCCC` [1-heptyne] + CN(C)c1cc[n+](COCCCOC[n+]2ccc(N(C)C)cc2)cc1.O=S(=O)([N-]S(=O)(=O)C(F)(F)F)C(F)(F)F.O=S(=O)([N-]S(=O)(=O)C(F)(F)F)C(F)(F)F: the activity coefficient (323.15 K) is 4.2 ± 0.29, the activity coefficient (333.15 K) was 4.09 ± 0.28 and the activity coefficient (343.15 K) was determined as 4.01 ± 0.27.

Regarding `CCC[N+](=O)[O-]` [1-nitropropane] + N#C[N-]C#N.N#C[N-]C#N.c1ccc(Cn2cc[n+](COCCCOC[n+]3ccn(Cc4ccccc4)c3)c2)cc1, the activity coefficient by setting is: (323.15 K) 1.76 ± 0.12; (333.15 K) 1.73 ± 0.12; (343.15 K) 1.75 ± 0.12.

In the case of `CCCCCCCCC` [nonane] + CCCCCCCCn1cc[n+](COCCC)c1C.O=S(=O)([N-]S(=O)(=O)C(F)(F)F)C(F)(F)F, the activity coefficient (323.15 K) was 7.93 ± 0.54, the activity coefficient (333.15 K) was determined as 7.42 ± 0.51 and the activity coefficient (343.15 K) stood at 6.93 ± 0.47.

`C1CCCCC1` [cyclohexane] + CN(C)c1cc[n+](COCCCOC[n+]2ccc(N(C)C)cc2)cc1.O=S(=O)([N-]S(=O)(=O)C(F)(F)F)C(F)(F)F.O=S(=O)([N-]S(=O)(=O)C(F)(F)F)C(F)(F)F: the activity coefficient (323.15 K) is 10.7 ± 0.73, the activity coefficient (333.15 K) worked out at 9.32 ± 0.64 and the activity coefficient (343.15 K) was 8.67 ± 0.59.

Turning to `C1COCCO1` [1,4-dioxane] + CCCOC[n+]1ccn(C)c1.N#C[N-]C#N, the activity coefficient (323.15 K) amounted to 1.06 ± 0.07, the activity coefficient (333.15 K) was determined as 1.09 ± 0.07 and the activity coefficient (343.15 K) came to 1.12 ± 0.07.

On to `c1ccsc1` [thiophene] + CCCOC[n+]1ccn(Cc2ccccc2)c1.O=S(=O)([N-]S(=O)(=O)C(F)(F)F)C(F)(F)F, for which the activity coefficient by setting is: (323.15 K) 0.7 ± 0.05; (333.15 K) 0.62 ± 0.04; (343.15 K) 0.62 ± 0.04.

As to `CCC(=O)CC` [pentan-3-one] + Cn1cc[n+](COCCCOC[n+]2ccn(C)c2)c1.O=S(=O)([N-]S(=O)(=O)C(F)(F)F)C(F)(F)F.O=S(=O)([N-]S(=O)(=O)C(F)(F)F)C(F)(F)F, the activity coefficient by setting is: (323.15 K) 0.6 ± 0.04; (333.15 K) 0.63 ± 0.04; (343.15 K) 0.63 ± 0.04.

As for `C1CCCCCC1` [cycloheptane] + CCCOC[n+]1ccn(Cc2ccccc2)c1.N#C[N-]C#N, the activity coefficient was determined as 35.8 ± 2.5 (323.15 K), 47.2 ± 3.2 (333.15 K) and 56.3 ± 3.9 (343.15 K).

`C#CCCCCC` [1-heptyne] + CCCOC[n+]1ccn(Cc2ccccc2)c1.F[B-](F)(F)F: the activity coefficient by setting is: (323.15 K) 8.53 ± 0.58; (333.15 K) 8.35 ± 0.57; (343.15 K) 8.28 ± 0.56.

In the case of `C1CCCCCC1` [cycloheptane] + CCCCCCCCn1cc[n+](COCCCOC[n+]2ccn(CCCCCCCC)c2C)c1C.O=S(=O)([N-]S(=O)(=O)C(F)(F)F)C(F)(F)F.O=S(=O)([N-]S(=O)(=O)C(F)(F)F)C(F)(F)F, the activity coefficient runs as follows: (323.15 K) 5.84 ± 0.4; (333.15 K) 7.77 ± 0.53; (343.15 K) 10.2 ± 0.7.

Regarding `C#CCCCCC` [1-heptyne] + Cn1cc[n+](COCCCOC[n+]2ccn(C)c2)c1.O=S(=O)([N-]S(=O)(=O)C(F)(F)F)C(F)(F)F.O=S(=O)([N-]S(=O)(=O)C(F)(F)F)C(F)(F)F, the activity coefficient is, setting by setting: (323.15 K) 5.9 ± 0.4; (333.15 K) 6.09 ± 0.42; (343.15 K) 5.71 ± 0.39.

Turning to `CO` [methanol] + CCCOC[n+]1ccn(C)c1.F[B-](F)(F)F, the activity coefficient is 1.29 ± 0.08 (323.15 K), 1.2 ± 0.08 (333.15 K) and 1.11 ± 0.07 (343.15 K).

Regarding `ClC(Cl)Cl` [trichloromethane] + CCCCCCCCn1cc[n+](COCCC)c1C.O=S(=O)([N-]S(=O)(=O)C(F)(F)F)C(F)(F)F, the activity coefficient is 0.51 ± 0.04 (323.15 K), 0.49 ± 0.04 (333.15 K) and 0.53 ± 0.04 (343.15 K).

Consider `CCCCCCCCCCCC` [dodecane] + CCCOC[n+]1ccn(C)c1.N#C[N-]C#N, for which the activity coefficient reads like this: (323.15 K) 802 ± 55; (333.15 K) 716 ± 49; (343.15 K) 639 ± 44.

On to `c1ccncc1` [pyridine] + Cn1cc[n+](COCCCOC[n+]2ccn(C)c2)c1.O=S(=O)([N-]S(=O)(=O)C(F)(F)F)C(F)(F)F.O=S(=O)([N-]S(=O)(=O)C(F)(F)F)C(F)(F)F, for which the activity coefficient by setting is: (323.15 K) 0.4 ± 0.03; (333.15 K) 0.41 ± 0.03; (343.15 K) 0.41 ± 0.03.

For the molecule `Cc1ccccc1C` [1,2-dimethylbenzene] + Cn1cc[n+](COCCCOC[n+]2ccn(C)c2)c1.O=S(=O)([N-]S(=O)(=O)C(F)(F)F)C(F)(F)F.O=S(=O)([N-]S(=O)(=O)C(F)(F)F)C(F)(F)F, the activity coefficient turned out to be 2.08 ± 0.14 (323.15 K), 2.1 ± 0.14 (333.15 K) and 2.04 ± 0.14 (343.15 K).

With `CC#N` [acetonitrile] + CCCOC[n+]1ccn(Cc2ccccc2)c1.F[B-](F)(F)F, the activity coefficient (323.15 K) stood at 0.63 ± 0.04, the activity coefficient (333.15 K) stood at 0.63 ± 0.04 and the activity coefficient (343.15 K) was determined as 0.63 ± 0.04.

Turning to `Cc1ccc(C)cc1` [1,4-dimethylbenzene] + CCCOC[n+]1ccn(Cc2ccccc2)c1.N#C[N-]C#N, the activity coefficient (323.15 K) was 3.66 ± 0.25, the activity coefficient (333.15 K) was 3.56 ± 0.24 and the activity coefficient (343.15 K) was determined as 3.46 ± 0.24.

As to `Cc1ccc(C)cc1` [1,4-dimethylbenzene] + N#C[N-]C#N.N#C[N-]C#N.c1ccc(Cn2cc[n+](COCCCOC[n+]3ccn(Cc4ccccc4)c3)c2)cc1, the activity coefficient stood at 8.84 ± 0.6 (323.15 K), 8.42 ± 0.57 (333.15 K) and 8.16 ± 0.56 (343.15 K).

With `ClCCl` [dichloromethane] + CCCCCCCCn1cc[n+](COCCCOC[n+]2ccn(CCCCCCCC)c2C)c1C.O=S(=O)([N-]S(=O)(=O)C(F)(F)F)C(F)(F)F.O=S(=O)([N-]S(=O)(=O)C(F)(F)F)C(F)(F)F, the activity coefficient reads like this: (323.15 K) 0.3 ± 0.03; (333.15 K) 0.3 ± 0.03; (343.15 K) 0.32 ± 0.03.

With `CC1CCCCC1` [methylcyclohexane] + CN(C)c1cc[n+](COCCCOC[n+]2ccc(N(C)C)cc2)cc1.O=S(=O)([N-]S(=O)(=O)C(F)(F)F)C(F)(F)F.O=S(=O)([N-]S(=O)(=O)C(F)(F)F)C(F)(F)F, the activity coefficient reads like this: (323.15 K) 13.9 ± 0.95; (333.15 K) 12.7 ± 0.87; (343.15 K) 11.8 ± 0.8.

On to `CC1CCCC1` [methylcyclopentane] + CCCOC[n+]1ccn(Cc2ccccc2)c1.O=S(=O)([N-]S(=O)(=O)C(F)(F)F)C(F)(F)F, for which the activity coefficient is, setting by setting: (323.15 K) 5.48 ± 0.37; (333.15 K) 4.46 ± 0.3; (343.15 K) 4.02 ± 0.27.

On to `CCCO` [propan-1-ol] + CCCOC[n+]1ccn(Cc2ccccc2)c1.F[B-](F)(F)F, for which the activity coefficient (323.15 K) was 2.15 ± 0.15, the activity coefficient (333.15 K) turned out to be 1.92 ± 0.13 and the activity coefficient (343.15 K) is 1.78 ± 0.12.

Consider `ClC(Cl)(Cl)Cl` [tetrachloromethane] + Cn1cc[n+](COCCCOC[n+]2ccn(C)c2)c1.N#C[N-]C#N.N#C[N-]C#N, for which the activity coefficient is, setting by setting: (323.15 K) 6.68 ± 0.46; (333.15 K) 6.94 ± 0.47; (343.15 K) 7 ± 0.48.

Consider `CCOCC` [diethyl ether] + CCCOC[n+]1ccn(Cc2ccccc2)c1.F[B-](F)(F)F, for which the activity coefficient (323.15 K) amounted to 6.03 ± 0.41 and the activity coefficient (333.15 K) was found to be 5.79 ± 0.39.

In the case of `CCC[N+](=O)[O-]` [1-nitropropane] + CCCCCCCCn1cc[n+](COCCC)c1C.O=S(=O)([N-]S(=O)(=O)C(F)(F)F)C(F)(F)F, the activity coefficient was 0.54 ± 0.04 (323.15 K), 0.53 ± 0.04 (333.15 K) and 0.53 ± 0.04 (343.15 K).

On to `CCO` [ethanol] + N#C[N-]C#N.N#C[N-]C#N.c1ccc(Cn2cc[n+](COCCCOC[n+]3ccn(Cc4ccccc4)c3)c2)cc1, for which the activity coefficient was 0.94 ± 0.06 (323.15 K), 0.89 ± 0.06 (333.15 K) and 0.86 ± 0.06 (343.15 K).
